These results are taken from article PMC10201369, “An asymmetric structure of bacterial TrpRS supports the half-of-the-sites catalytic mechanism and facilitates antimicrobial screening” (Nucleic Acids Research, 2023).

Assay [1] concerns the target T1, EcTrpRS (Escherichia coli, UniProt P00954).
T1 construct: gene trpS; full-length (domains span residues 1-334), C-terminal His6 tag, pET20b(+), E. coli BL21(DE3); homodimer, as purified carries one copurified TrpAMP per dimer
Description: ITC, one-site model. It is filed as binding. Background: In ITC the heat of successive injections is recorded.

Assay [2] has as its target T1, EcTrpRS. The assay is described as follows: ITC, one-site model; cocrystal structure. It is filed as binding. The conditions noted are these: PBS, 15 °C.
The target in another assay is T2, SaTrpRS (Staphylococcus aureus, UniProt P67593).
T2 construct: gene trpS; residues 1-329, expressed and purified similarly to EcTrpRS (His-tagged, E. coli BL21(DE3))
Description: ITC, one-site model. As to conditions: PBS, 15 °C. Type of assay: binding.

Assay [3] has as its target T1, EcTrpRS. The assay is described as follows: ATP consumption assay (Kinase-Glo), tRNA-dependent. Type of assay: biochemical.
Assay [4] has as its target T1, EcTrpRS. The assay is described as follows: crystal structure, copurified. As to conditions: intermediate product in active site of closed subunit; 1.80 Å. Type of assay: binding.

T2 sequence (P67593 whole entry, the tested form may be a part): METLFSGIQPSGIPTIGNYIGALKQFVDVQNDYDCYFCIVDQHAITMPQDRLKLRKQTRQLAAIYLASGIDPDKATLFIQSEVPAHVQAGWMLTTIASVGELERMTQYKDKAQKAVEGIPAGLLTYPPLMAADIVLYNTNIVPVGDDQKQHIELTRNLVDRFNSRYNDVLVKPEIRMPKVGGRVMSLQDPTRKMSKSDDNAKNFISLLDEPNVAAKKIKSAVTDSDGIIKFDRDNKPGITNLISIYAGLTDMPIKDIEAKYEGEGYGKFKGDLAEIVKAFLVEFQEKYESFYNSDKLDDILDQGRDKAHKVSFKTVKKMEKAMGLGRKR

As to `Nc1ncnc2c1ncn2[C@@H]1O[C@H](COP(=O)(O)OP(=O)(O)OP(=O)(O)O)[C@@H](O)[C@H]1O` [ATP], the dissociation constant (Kd) (in general, the free concentration of one partner at which half of the binding sites on the other are occupied at equilibrium, for simple one-to-one binding) at EcTrpRS [1] came to 305 ± 49.9 µM.

In the case of `NC(=O)c1cccc2cn(-c3ccc([C@@H]4CCCNC4)cc3)nc12` [niraparib], the dissociation constant Kd entry at EcTrpRS [2] (L-Trp site of the open subunit, blocked by high L-Trp) was “~ around 20 μM”; on SaTrpRS, “~ around 20 μM”. Further, the IC50 (in general, the concentration that inhibits the measured activity by half) against EcTrpRS [3] was found to be 148 µM.

Turning to `N[C@@H](Cc1c[nH]c2ccccc12)C(=O)O` [L-Trp], at EcTrpRS [2] (measured for open-closed (one TrpAMP bound) and apo open-open enzyme, active site of open subunit), the Kd entry is “ITC measurements of L-Trp to ‘open-closed’ asymmetric EcTrpRS and ‘open-open’ apo EcTrpRS showed similar binding”.

For the molecule `Nc1ncnc2c1ncn2[C@@H]1O[C@H](COP(=O)(O)OC(=O)[C@@H](N)Cc2c[nH]c3ccccc23)[C@@H](O)[C@H]1O` [TrpAMP], the “crystal structure, copurified” value on EcTrpRS [4] was “A copurified tryptophanyl adenylate (TrpAMP)”.
